Our source for the viability, Activity and inhibition values is ChEMBL document CHEMBL4602645, “Design, synthesis and evaluation of diosgenin carbamate derivatives as multitarget anti-Alzheimer's disease agents” (2020).

Experiment [1] relates to SH-SY5Y. Kind of experiment: Neuroprotective activity against H2O2-induced cytotoxicity in human SH-SY5Y cells assessed as cell viability at 1 mM pretreated for 2 hrs followed by H2O2 challenge and measured after MTT assay relative to control. It is filed as functional. To be noted: read-out: Activity. A general note: Tetrazolium dyes change colour on reduction, which living cells bring about.

Experiment [2] concerns SH-SY5Y. Description: Neuroprotective activity against H2O2-induced cytotoxicity in human SH-SY5Y cells assessed as cell viability at 10 uM pretreated for 2 hrs followed by H2O2 challenge and measured after 24 hrs by MTT assay relative to control. It is filed as functional. To be noted: read-out: Activity.
The test system of experiment [3] is SH-SY5Y. Description: Neuroprotective activity in human SH-SY5Y cells assessed as inhibition of H2O2-induced decreased nerve filaments at 1 to 50 uM pretreated for 2 hrs followed by H2O2 challenge and measured after 12 hrs by fluorescence microscopy analysis. The format is functional, cell-based.
Experiment [4] deals with SH-SY5Y. Description: Effect on mitochondrial membrane potential in human SH-SY5Y cells assessed as […] in H2O2-incuded mitochondrial membrane potential loss by measuring fluorescence shift at 5 to 50 uM pretreated for 2 hrs followed by H2O2 challenge measured after 12 hrs by fluorescence microscopy analysis. It is filed as functional, cell-based.
For experiment [5], the system named is Mus musculus. Kind of experiment: Neuroprotective activity in ICR mouse model of D-galactose-induced aging assessed as increase in number of […] cells at 6 to 30 mg/kg, ig QD measured after 8 weeks by hematoxylin-eosin staining based assay. The format is functional, organism-based.
In experiment [6] the test system is Mus musculus. Kind of experiment: Antioxidant activity in ICR mouse model of D-galactose-induced aging assessed as increase in superoxide dismutase level in serum at 6 to 30 mg/kg, ig QD measured after 8 weeks. It is filed as functional, organism-based.
Experiment [7] relates to RAW264.7. Kind of experiment: Antiinflammatory activity in mouse RAW264.7 cells assessed as inhibition of LPS-induced nitric oxide production at 10 uM preincubated for 2 hrs followed by LPS stimulation and measured after 24 hrs by Griess assay relative to control. It is filed as functional.
Experiment [8] deals with Mus musculus. Description: Improvement in learning and spatial memory in ICR mouse model of D-galactose-induced aging assessed as effect on time spent on quadrant at 6 to 30 mg/kg, ig QD measured after 8 weeks by Morris water maze test. The format is functional, organism-based.
Experiment [9] has as its system RAW264.7. Kind of experiment: Antiinflammatory activity in mouse RAW264.7 cells assessed as decrease in LPS-induced IL-6 expression by Western blot analysis. The format is functional, cell-based. Background: In western blotting, separated proteins are transferred to a membrane and probed.
The test system of experiment [10] is Mus musculus. Kind of experiment: Neuroprotective activity in ICR mouse model of D-galactose-induced aging assessed as reduction in degeneration of neuron in hippocampal region at 6 to 30 mg/kg, ig QD measured after 8 weeks by hematoxylin-eosin staining based assay. The format is functional, organism-based.
In experiment [11] the test system is SH-SY5Y. Kind of experiment: Neuroprotective activity against H2O2-induced toxicity in human SH-SY5Y cells assessed as decrease in cell viability at 0.1 to 100 uM pretreated for 2 hrs followed by H2O2 challenge and measured after 12 hrs by MTT assay. The format is functional, cell-based.
The test system of experiment [12] is RAW264.7. Kind of experiment: Antiinflammatory activity in mouse RAW264.7 cells assessed as decrease in LPS-induced TNFalpha expression by Western blot analysis. It is filed as functional, cell-based.
The test system of experiment [13] is SH-SY5Y. Kind of experiment: Effect on mitochondrial ROS generation in human SH-SY5Y cells assessed as decrease in H2O2-induced mitochondrial ROS level by measuring fluorescence intensity at 5 to 50 uM incubated for 2 hrs by DCFDA probe based fluorescence microscopy analysis. It is filed as functional, cell-based.
The subject of experiment [14] is SH-SY5Y. Description: Neuroprotective activity in human SH-SY5Y cells assessed as inhibition of H2O2-induced shortened nerve filaments at 1 to 50 uM pretreated for 2 hrs followed by H2O2 challenge and measured after 12 hrs by fluorescence microscopy analysis. The format is functional, cell-based.
In experiment [15] the test system is RAW264.7. Kind of experiment: Antiinflammatory activity in mouse RAW264.7 cells assessed as decrease in LPS-induced IL-1beta expression by Western blot analysis. It is filed as functional, cell-based.
Another experiment has as its system Astrocyte. Description: Neuroprotective activity against amyloid-beta42-induced cell death in astrocytes isolated from cortex of Sprague-Dawley rat assessed as decrease in cell viability at 5 to 100 uM pretreated for 2 hrs followed by amyloid-beta42 stimulation measured after 24 hrs by MTT assay. The format is functional, cell-based.

Activity calls are given as the source filed them. The rule behind the calls is not given here.

Consider `CC(=O)N[C@@H](CS)C(=O)O` [ACETYLCYSTEINE], for which, in the experiment with SH-SY5Y [1], the viability at 1000 µM amounted to 37.1%.

The term inhibition denotes the change of the read-out against control, counted positive when it falls. For the compound `C[C@@H]1CC[C@@]2(OC1)O[C@H]1C[C@H]3[C@@H]4CC=C5C[C@@H](OC(=O)NCc6ccccc6)CC[C@]5(C)[C@H]4CC[C@]3(C)[C@H]1[C@@H]2C`, the viability at 10 µM in the experiment with SH-SY5Y [2] is 75.3%. Further, the outcome in the experiment on SH-SY5Y [3], in the experiment with SH-SY5Y [4], in the experiment with Mus musculus [5], with Mus musculus [6], in the experiment on Mus musculus [8] and in the experiment with Mus musculus [10] was Active. The outcome in the experiment on SH-SY5Y [11], with SH-SY5Y [13], in the experiment on SH-SY5Y [14] and in the experiment on Astrocyte was Active. The inhibition at 10 µM with RAW264.7 [7] was determined as 22.7%. Besides, the Activity result in the experiment with RAW264.7 [9], with RAW264.7 [12] and in the experiment with RAW264.7 [15] was “Dose-dependent effect” in each case.

`C[C@@H]1CC[C@@]2(OC1)O[C@H]1C[C@H]3[C@@H]4CC=C5C[C@@H](OC(=O)NCc6ccc(F)cc6)CC[C@]5(C)[C@H]4CC[C@]3(C)[C@H]1[C@@H]2C`: the viability at 10 µM in the experiment on SH-SY5Y [2] is 60.1%. In addition, the inhibition at 10 µM in the experiment on RAW264.7 [7] is 18.6%.
